The results in this text go back to patent US7091198B1, “2,5-disubstituted pyrimidine derivatives” (Bayer HealthCare AG, priority 2002, dated 2006).

The assay relates to cGMP in primary cortical neurons. Briefly: Increase of cGMP in primary cortical neurons. The note with it: Primary cortical neuron, 20 min; rat embryonic primary cortical neurons; 20 min incubation at 37° C. with IBMX; triplicate determination; more than 2-fold increase compared with the control; read-out: concentration leading to a statistically significant increase in cGMP. Type of assay: cell-based. Here is the method: Increase of cGMP in Primary Cortical Neurons
Rat embryos (embryonic day 17–19) are decapitated, and the cerebrum is removed and incubated with 5 ml of papain solution and 250 μl of DNAse (papain kit from Cell-System) at 37° C. for 30 min, homogenized using a Pasteur pipette and centrifuged at 1200 rpm for 5 min. The supernatant is removed, the cell pellet resuspended (in 2.7 ml of EBSS [Earl's balanced salt solution], 300 μl of ovomucoid/albumin (conc.) solution, 150 μl of DNAse; papain kit from Cell-System), layered over 5 ml of ovomucoid/albumin solution and centrifuged at 700 rpm for 6 min. The supernatant is removed, the cells are resuspended in cultivation medium (Gibco neurobasal medium, B27 Supplement 50×1 ml/100 ml, 2 mM L-glutamine), counted (approx. 150 000 cells/well) and plated out on poly-D-lysine-coated 96-well plates (Costar) with 200 μl/well. After 6–7 days at 37° C. (5% CO2), the neurons are freed of culture medium and washed once with assay buffer (154 mM NaCl, 5.6 mM KCl, 2.3 mM CaCl2.2H2O, 1 mM MgCl2, 5.6 mM glucose, 8.6 mM HEPES (4-(2-hydroxyethyl)piperazine-1-ethanesulfonic acid), pH=7.4). 100 μl/well test substance are dissolved in assay buffer and then 100 μl/well IBMX (3-isobutyl-1-methylxanthine; dissolved in 50 mM ethanol, diluted with assay buffer to a final concentration of 100 μM) are added. After incubation at 37° C. for 20 min, the assay buffer is replaced by 200 μl/well of lysis buffer (cGMP EIA RPN 226 from Amersham Pharmacia Biotech), and the cGMP content of the lystates is determined using an EIA assay kit.
The concentrations indicated in Table 1 lead to a statistically significant increase in cGMP (triplicate determination; more than 2-fold increase compared with the control)
As to `CO[C@H]1CN(c2cnc(-c3nn(Cc4ccccc4F)c4ncccc34)nc2)C[C@@H]1OC` [Example 6], the minimal effective concentration was 0.27 µM.
The result for `Fc1ccccc1Cn1nc(-c2ncc(N3CC4CNCC(C3)O4)cn2)c2cccnc21` [Example 10] reads 1.2 µM; that for `O=C1CCCCC1c1cnc(-c2nn(Cc3ccccc3F)c3ncccc23)nc1` (centres unmarked) [Example 13, 2-{2-[1-(2-Fluorobenzyl)-1H-pyrazol[3,4-b]pyridin-3-yl]-5-pyrimidinyl}-cyclohexanone], 0.27 µM.
The result for `Fc1ccccc1Cn1nc(-c2ncc(N3CC4CCC(C3)O4)cn2)c2cccnc21` [Example 19, 1-(2-Fluorobenzyl)-3-[5-(8-oxa-3-azabicyclo[3.2.1]oct-3-yl)-2-pyrimidinyl]-1H-pyrazolo[3,4-b]pyridine] reads 0.27 µM; that for `CO[C@H]1CCN(c2cnc(-c3nn(Cc4ccccc4F)c4ncccc34)nc2)C1` [Example 20, 1-(2-Fluorobenzyl)-3-{5-[(3S)-3-methoxy-1-pyrrolidinyl]-2-pyrimidinyl}-1 H-pyrazolo[3,4-b]pyridine], 0.27 µM; that for `COc1ccccc1-c1cnc(-c2nn(Cc3ccccc3F)c3ncccc23)nc1` [Example 27], 0.9 µM.
The result for `Fc1ccccc1Cn1nc(-c2ncc(-c3cn[nH]c3C3CC3)cn2)c2cccnc21` [Example 36, 3-[5-(5-Cyclopropyl-1H-pyrazol-4-yl)-2-pyrimidinyl]-1-(2-fluorobenzyl)-1 H-pyrazolo[3,4-b]pyridine] reads 0.27 µM; that for `O=C1CCN(c2cnc(-c3nn(Cc4ccccc4F)c4ncccc34)nc2)C1` [Example 38, 1-{2-[1-(2-Fluorobenzyl)-1H-pyrazol[3,4-b]pyridin-3-yl]-5-pyrimidinyl}-3-pyrrolidinone], 0.27 µM.
